Active and inactive are the calls of the source. The calls are words filed in the database; no cut-off is given here.

The values below come from ChEMBL document CHEMBL3045098, “Petra, Osiris and Molinspiration (POM) together as a successful support in drug design: antibacterial activity and biopharmaceutical characterization of some azo Schiff bases” (2012).

Common to all, as to format: functional
The subject of assay [1] is Pseudomonas aeruginosa. The assay is described as follows: Antimicrobial activity against Pseudomonas aeruginosa at 2000 ug after 24 hr by disk diffusion method relative to control. (Agar diffusion results depend on both activity and mobility in agar.)
For assay [2], the system named is Klebsiella pneumoniae. The experiment in a line: Antimicrobial activity against Klebsiella pneumoniae at 2000 ug after 24 hr by disk diffusion method relative to control.
In assay [3] the test system is Escherichia coli. The experiment in a line: Antimicrobial activity against Escherichia coli at 2000 ug after 24 hr by disk diffusion method relative to control.
The test system of assay [4] is Staphylococcus aureus. The experiment in a line: Antimicrobial activity against Staphylococcus aureus at 2000 ug after 24 hr by disk diffusion method relative to control.
Assay [5] has as its system Bacillus subtilis. The experiment in a line: Antimicrobial activity against Bacillus subtilis at 2000 ug after 24 hr by disk diffusion method relative to control.
Assay [6] relates to Bacillus subtilis. The assay is described as follows: Antimicrobial activity against Bacillus subtilis at 2000 ug after 24 hr by disk diffusion method. The following applies: read-out: IZ.
Assay [7] deals with Staphylococcus aureus. The experiment in a line: Antimicrobial activity against Staphylococcus aureus at 2000 ug after 24 hr by disk diffusion method. Conditions: read-out: IZ.
The test system of assay [8] is Escherichia coli. The assay is described as follows: Antimicrobial activity against Escherichia coli at 2000 ug after 24 hr by disk diffusion method. Conditions: read-out: IZ.
Assay [9] concerns Klebsiella pneumoniae. The assay is described as follows: Antimicrobial activity against Klebsiella pneumoniae at 2000 ug after 24 hr by disk diffusion method. The following applies: read-out: IZ.
Assay [10] has as its system Pseudomonas aeruginosa. The assay is described as follows: Antimicrobial activity against Pseudomonas aeruginosa at 2000 ug after 24 hr by disk diffusion method. The following applies: read-out: IZ.

`COc1ccc(/N=N/c2cc(/C=N/Cc3ccccc3)c(O)c(OC)c2)cc1`: the inhibition entry in the assay with Pseudomonas aeruginosa [1], in the assay with Klebsiella pneumoniae [2] and in the assay with Escherichia coli [3] was “inactive” throughout.

Turning to `COc1ccc(/N=N/c2cc(/C=N/c3cccc(OC)c3)c(O)c(OC)c2)cc1`, the inhibition result with Pseudomonas aeruginosa [1], in the assay on Klebsiella pneumoniae [2] and with Escherichia coli [3] was “inactive” in each case. Further, the “inhibition (INH)” value in the assay with Staphylococcus aureus [4] and in the assay with Bacillus subtilis [5] was 45% in each case. Besides, the zone of inhibition at 2000 µg/disc in the assay on Bacillus subtilis [6] and with Staphylococcus aureus [7] was 10 mm each time.

As to `COc1ccc(/N=N/c2cc(/C=N/c3ccccc3C)c(O)c(OC)c2)cc1`, the inhibition entry in the assay on Pseudomonas aeruginosa [1], in the assay on Klebsiella pneumoniae [2] and in the assay on Escherichia coli [3] was “inactive” in each case.

On to `COc1ccc(/N=N/c2cc(C=O)c(O)c(OC)c2)cc1`, for which the inhibition entry in the assay with Pseudomonas aeruginosa [1], in the assay with Klebsiella pneumoniae [2] and with Escherichia coli [3] was “inactive” each time. Besides, the “inhibition (INH)” value in the assay with Staphylococcus aureus [4] and in the assay with Bacillus subtilis [5] was 45% in each case. Also, the zone of inhibition at 2000 µg/disc in the assay with Bacillus subtilis [6] and in the assay on Staphylococcus aureus [7] was 10 mm in each case.

Turning to `COc1ccc(/N=C/c2cc(/N=N/c3ccc(OC)cc3)cc(OC)c2O)cc1`, the inhibition result in the assay on Pseudomonas aeruginosa [1], with Klebsiella pneumoniae [2] and in the assay with Escherichia coli [3] was “inactive” each time.

As to `COc1ccc(/N=N/c2cc(/C=N/c3ccc(S(=O)(=O)c4cccc(/N=C/c5cc(/N=N/c6ccc(OC)cc6)cc(OC)c5O)c4)cc3)c(O)c(OC)c2)cc1`, the inhibition result in the assay with Pseudomonas aeruginosa [1], in the assay with Klebsiella pneumoniae [2] and in the assay on Escherichia coli [3] was “inactive” each time. The “inhibition (INH)” value was 45% in the assay with Staphylococcus aureus [4] and 64% in the assay with Bacillus subtilis [5]. Also, the results for the zone of inhibition at 2000 µg/disc in the assay on Bacillus subtilis [6] and in the assay on Staphylococcus aureus [7] were 14 mm and 10 mm, respectively.

`COc1ccc(/N=N/c2cc(/C=N/c3ccc(Oc4cccc(/N=C/c5cc(/N=N/c6ccc(OC)cc6)cc(OC)c5O)c4)cc3)c(O)c(OC)c2)cc1`: the inhibition entry in the assay with Pseudomonas aeruginosa [1], in the assay with Klebsiella pneumoniae [2] and with Escherichia coli [3] was “inactive” throughout.

For the compound `CC1(C)S[C@@H]2[C@H](NC(=O)[C@H](N)c3ccccc3)C(=O)N2[C@H]1C(=O)O`, the inhibition result in the assay on Pseudomonas aeruginosa [1], in the assay on Klebsiella pneumoniae [2] and in the assay on Escherichia coli [3] was “inactive” each time.

Turning to `COc1ccc(/N=N/c2cc(/C=N/c3cccc(C)c3)c(O)c(OC)c2)cc1`, the inhibition result in the assay on Pseudomonas aeruginosa [1], with Klebsiella pneumoniae [2] and in the assay with Escherichia coli [3] was “inactive” each time. The “inhibition (INH)” value in the assay with Staphylococcus aureus [4] and in the assay on Bacillus subtilis [5] was 45% in each case. Moreover, the zone of inhibition at 2000 µg/disc in the assay on Bacillus subtilis [6] and in the assay on Staphylococcus aureus [7] was 10 mm each time.

For `COc1ccc(/N=N/c2cc(/C=N/c3cccc(O)c3)c(O)c(OC)c2)cc1`, the inhibition result in the assay with Pseudomonas aeruginosa [1], in the assay on Klebsiella pneumoniae [2] and in the assay on Escherichia coli [3] was “inactive” throughout. Also, the “inhibition (INH)” value with Staphylococcus aureus [4] and in the assay on Bacillus subtilis [5] was 45% in each case. The zone of inhibition at 2000 µg/disc with Bacillus subtilis [6] and in the assay on Staphylococcus aureus [7] was 10 mm in each case.

For the compound `COc1ccc(/N=N/c2cc(/C=N/c3ccccc3)c(O)c(OC)c2)cc1`, the inhibition entry in the assay with Pseudomonas aeruginosa [1], in the assay with Klebsiella pneumoniae [2] and in the assay with Escherichia coli [3] was “inactive” throughout. The “inhibition (INH)” value in the assay on Staphylococcus aureus [4] and in the assay with Bacillus subtilis [5] was 45% throughout. Besides, the zone of inhibition at 2000 µg/disc in the assay on Bacillus subtilis [6] and in the assay on Staphylococcus aureus [7] was 10 mm in each case.

For `COc1ccc(/N=N/c2cc(/C=N/c3ccccc3OC)c(O)c(OC)c2)cc1`, the inhibition result in the assay on Pseudomonas aeruginosa [1], in the assay on Klebsiella pneumoniae [2] and in the assay with Escherichia coli [3] was “inactive” each time.

Turning to `CN[C@@H]1[C@H](O[C@H]2[C@H](O[C@H]3[C@H](O)[C@@H](O)[C@H](N=C(N)N)[C@@H](O)[C@@H]3N=C(N)N)O[C@@H](C)[C@]2(O)C=O)O[C@@H](CO)[C@H](O)[C@H]1O` [STREPTOMYCIN], the “inhibition (INH)” value in the assay on Pseudomonas aeruginosa [1] came to 64%; in the assay with Staphylococcus aureus [4], 45%; in the assay on Bacillus subtilis [5], 64%; in the assay on Klebsiella pneumoniae [2], 64%; in the assay on Escherichia coli [3] it was 64%. The zone of inhibition at 2000 µg/disc is 14 mm in the assay with Escherichia coli [8]; 14 mm in the assay with Klebsiella pneumoniae [9]; 14 mm with Bacillus subtilis [6]; 10 mm with Staphylococcus aureus [7]; 14 mm in the assay on Pseudomonas aeruginosa [10].
